Measured values: patent US20100048605A1, “SYNERGISTIC EFFECTS OF COMBINATIONS OF N[…] OPIOIDS FOR THE TREATMENT OF PAIN” (University of Kentucky Research Foundation, priority 2006, published 2010)

Columns and labels:
[1] = following peripheral administration of nicotine; cited from earlier work
[2] = test system: rodent model of nociceptive pain (tail-flick test); test: Tail-flick test after intrathecal (IT) administration; assay type: in vivo, Sprague Dawley male rats; conditions: rat
Description: Chronic catheterization of the spinal subarachnoid space was performed in Sprague Dawley male rats (about 90 days old, 350 g; Harlem, IN) according to minor modification of the method described by [Yaksh T and Rudy T. “Chronic catheterization of the spinal subarachnoid space” Physiol Behav (1976) 17:1031-1036]. Briefly, a 21 cm long P-10 polyethylene tubing (volume 10 mcl) which extended 8.5 cm beyond an incision in the atlanto-occipital membrane was inserted and secured to the scull with acrylic cement. The catheter rested in the vicinity of T-12 at the rostral face of the lumbar cord enlargement. The study was initiated 7 days after IT catheterization.
S(−)-nornicotine perchlorate (10 mcg), R(+)-nornicotine perchlorate (10 mcg) and morphine sulfate (0.5 mcg) were dissolved in saline and administered by the intrathecal (IT) route (10 mcl). Groups of rats was treated with S(−)-nornicotine alone and in combination with morphine, […] alone and in combination with morphine, morphine alone, and saline (10 mcl). The responses to acute thermal stimuli were determined using the tail-flick test (a baseline equal to about 2-3 seconds, cut-off time of 10 seconds). […] Data are presented as time courses of the TFL (normalized for baseline) and areas under the curve (AUC0-180min). All data are mean±SEM (n=4-6 rats). Doses refer to salts.

[3] = test system: rodent model of nociceptive pain (tail-flick test); test: Tail-flick test after intraperitoneal (IP) administration; assay type: in vivo, Sprague Dawley male rats; conditions: rat
Description: Sprague Dawley (about 90 days old, 350 g; Harlem, IN) male rats were used. S(−)-nornicotine fumarate (2.57 mg/kg), R(+)-nornicotine fumarate (2.57 mg/kg) and morphine sulfate (3 mg/kg) were dissolved in saline and injected intraperitonealy (IP, 1 ml/kg). Each rat received three treatments: either S(−)-nornicotine alone, morphine alone and S(−)-nornicotine followed by morphine or R(+)-nornicotine alone, morphine alone and R(+)-nornicotine followed by morphine. Injections were made in randomized fashion at 48 hour intervals. The responses to acute thermal stimuli were determined using the tail-flick test [D'Amour F. E., Smith D. L. “A method for determining loss of pain sensation” J Pharmacol Exp Ther (1941), 72:74-79]. Tail-flick latency (TFL) was measured by recording the time from the onset of the heat stimulus to the tail to withdrawal of the tail from the heat source, using a standard tail-flick apparatus (IITC, Life Science). The sensitivity of the instrument was adjusted to provide a baseline about 2 seconds. Cut-off time of 10 seconds was used to avoid tail damage. TFL were determined prior to (twice, about 15 minutes apart) and at […] after administration. Data were normalized for pre-injection baseline. Areas under the curve (AUC0-180min) were calculated for normalized data by trapezoidal rule. […]

[4] = following repeated nicotine dosing; cited from earlier work
[5] = compared with nicotine; cited from earlier work
[6] = humans; cited from earlier work

## CN1CCCC1c1cccnc1 (stereo not shown) [nicotine, reference compound]
[1]
  residence in the rat's brain: 52 min

## c1cncc([C@@H]2CCCN2)c1 [S(−)-nornicotine]
[2]; S(−)-nornicotine perchlorate 10 mcg alone
  analgesia of S(−)-nornicotine alone (tail-flick latency, AUC0-180min): did not produce analgesia
[2]; S(−)-nornicotine perchlorate 10 mcg with morphine sulfate 0.5 mcg
  effect on the analgesic effect of morphine (tail-flick latency, AUC0-180min): significantly enhanced
[3]; S(−)-nornicotine fumarate 2.57 mg/kg alone
  analgesia of S(−)-nornicotine alone (tail-flick latency, AUC0-180min): did not produce analgesia
[3]; S(−)-nornicotine fumarate 2.57 mg/kg followed by morphine sulfate 3 mg/kg
  effect on the analgesic effect of morphine (tail-flick latency, AUC0-180min): significantly enhanced

## c1cncc([C@@H]2CCCN2)c1 [nornicotine]
[4]
  accumulation in the brain compared to nicotine: about 4 fold
[1]
  residence in the rat's brain: 166 min
  residence in the rat's brain relative to nicotine: about 3 times
[5]
  bioavailability (in words): superior
[6]
  plasma half-life: 8 h
